Assay results taken from ChEMBL document CHEMBL2429768, “Eco-friendly synthesis and antimicrobial activities of substituted-5-(1H-indol-3-yl)methylene)-2,2-dimethyl-1,3-dioxane-4,6-dione derivatives” (2013).
In brackets after ≈: the same amount, converted by molar mass.

How the values were obtained:
Type in all cases: functional
[1] = test system: Bacillus subtilis; assay: Antibacterial activity against Bacillus subtilis at 500 ug/ml after 24 hrs by agar well diffusion method; conditions: read-out: DIZ
[2] = test system: Escherichia coli; assay: Antibacterial activity against Escherichia coli ATCC 8739 at 100 ug/ml after 24 hrs by agar well diffusion method; conditions: ATCC 8739, 24 h, read-out: DIZ
[3] = test system: Escherichia coli; assay: Antibacterial activity against Escherichia coli ATCC 8739 at 50 ug/ml after 24 hrs by agar well diffusion method; conditions: ATCC 8739, 24 h, read-out: DIZ
[4] = test system: Fusarium oxysporum; assay: Antifungal activity against Fusarium oxysporum at 500 ug/ml after 72 hrs by agar well diffusion method; conditions: read-out: DIZ
[5] = test system: Bacillus subtilis; assay: Antibacterial activity against Bacillus subtilis at 100 ug/ml after 24 hrs by agar well diffusion method; conditions: read-out: DIZ
[6] = test system: Aspergillus niger; assay: Antifungal activity against Aspergillus niger at 200 ug/ml after 72 hrs by agar well diffusion method; conditions: read-out: DIZ
[7] = test system: Aspergillus niger; assay: Antifungal activity against Aspergillus niger at 300 ug/ml after 72 hrs by agar well diffusion method; conditions: read-out: DIZ
[8] = test system: Aspergillus niger; assay: Antifungal activity against Aspergillus niger at 50 ug/ml after 72 hrs by agar well diffusion method; conditions: read-out: DIZ
[9] = test system: Staphylococcus aureus; assay: Antibacterial activity against Staphylococcus aureus ATCC 6538 at 200 ug/ml after 24 hrs by agar well diffusion method; conditions: ATCC 6538, 24 h, read-out: DIZ
[10] = test system: Aspergillus flavus; assay: Antifungal activity against Aspergillus flavus at 100 ug/ml after 72 hrs by agar well diffusion method; conditions: read-out: DIZ
[11] = test system: Escherichia coli; assay: Antibacterial activity against Escherichia coli ATCC 8739 after 24 hrs by agar well diffusion method; conditions: ATCC 8739, 24 h
[12] = test system: Rhizoctonia solani; assay: Antifungal activity against Rhizoctonia solani after 72 hrs by agar well diffusion method
[13] = test system: Fusarium oxysporum; assay: Antifungal activity against Fusarium oxysporum at 50 ug/ml after 72 hrs by agar well diffusion method; conditions: read-out: DIZ
[14] = test system: Staphylococcus aureus; assay: Antibacterial activity against Staphylococcus aureus ATCC 6538 at 300 ug/ml after 24 hrs by agar well diffusion method; conditions: ATCC 6538, 24 h, read-out: DIZ
[15] = test system: Escherichia coli; assay: Antibacterial activity against Escherichia coli ATCC 8739 at 200 ug/ml after 24 hrs by agar well diffusion method; conditions: ATCC 8739, 24 h, read-out: DIZ
[16] = test system: Staphylococcus aureus; assay: Antibacterial activity against Staphylococcus aureus ATCC 6538 at 50 ug/ml after 24 hrs by agar well diffusion method; conditions: ATCC 6538, 24 h, read-out: DIZ
[17] = test system: Rhizoctonia solani; assay: Antifungal activity against Rhizoctonia solani at 300 ug/ml after 72 hrs by agar well diffusion method; conditions: read-out: DIZ
[18] = test system: Escherichia coli; assay: Antibacterial activity against Escherichia coli ATCC 8739 at 300 ug/ml after 24 hrs by agar well diffusion method; conditions: ATCC 8739, 24 h, read-out: DIZ
[19] = test system: Fusarium oxysporum; assay: Antifungal activity against Fusarium oxysporum at 200 ug/ml after 72 hrs by agar well diffusion method; conditions: read-out: DIZ
[20] = test system: Aspergillus flavus; assay: Antifungal activity against Aspergillus flavus at 50 ug/ml after 72 hrs by agar well diffusion method; conditions: read-out: DIZ
[21] = test system: Fusarium oxysporum; assay: Antifungal activity against Fusarium oxysporum after 72 hrs by agar well diffusion method
[22] = test system: Klebsiella pneumoniae; assay: Antibacterial activity against Klebsiella pneumoniae at 300 ug/ml after 24 hrs by agar well diffusion method; conditions: read-out: DIZ
[23] = test system: Fusarium oxysporum; assay: Antifungal activity against Fusarium oxysporum at 100 ug/ml after 72 hrs by agar well diffusion method; conditions: read-out: DIZ
[24] = test system: Aspergillus niger; assay: Antifungal activity against Aspergillus niger at 500 ug/ml after 72 hrs by agar well diffusion method; conditions: read-out: DIZ
[25] = test system: Klebsiella pneumoniae; assay: Antibacterial activity against Klebsiella pneumoniae at 200 ug/ml after 24 hrs by agar well diffusion method; conditions: read-out: DIZ
[26] = test system: Klebsiella pneumoniae; assay: Antibacterial activity against Klebsiella pneumoniae at 50 ug/ml after 24 hrs by agar well diffusion method; conditions: read-out: DIZ
[27] = test system: Rhizoctonia solani; assay: Antifungal activity against Rhizoctonia solani at 100 ug/ml after 72 hrs by agar well diffusion method; conditions: read-out: DIZ
[28] = test system: Aspergillus flavus; assay: Antifungal activity against Aspergillus flavus at 200 ug/ml after 72 hrs by agar well diffusion method; conditions: read-out: DIZ
[29] = test system: Bacillus subtilis; assay: Antibacterial activity against Bacillus subtilis at 200 ug/ml after 24 hrs by agar well diffusion method; conditions: read-out: DIZ
[30] = test system: Staphylococcus aureus; assay: Antibacterial activity against Staphylococcus aureus ATCC 6538 at 500 ug/ml after 24 hrs by agar well diffusion method; conditions: ATCC 6538, 24 h, read-out: DIZ
[31] = test system: Aspergillus niger; assay: Antifungal activity against Aspergillus niger at 100 ug/ml after 72 hrs by agar well diffusion method; conditions: read-out: DIZ
[32] = test system: Bacillus subtilis; assay: Antibacterial activity against Bacillus subtilis at 50 ug/ml after 24 hrs by agar well diffusion method; conditions: read-out: DIZ
[33] = test system: Staphylococcus aureus; assay: Antibacterial activity against Staphylococcus aureus ATCC 6538 at 100 ug/ml after 24 hrs by agar well diffusion method; conditions: ATCC 6538, 24 h, read-out: DIZ
[34] = test system: Aspergillus niger; assay: Antifungal activity against Aspergillus niger after 72 hrs by agar well diffusion method
[35] = test system: Klebsiella pneumoniae; assay: Antibacterial activity against Klebsiella pneumoniae at 500 ug/ml after 24 hrs by agar well diffusion method; conditions: read-out: DIZ
[36] = test system: Aspergillus flavus; assay: Antifungal activity against Aspergillus flavus after 72 hrs by agar well diffusion method
[37] = test system: Bacillus subtilis; assay: Antibacterial activity against Bacillus subtilis at 300 ug/ml after 24 hrs by agar well diffusion method; conditions: read-out: DIZ
[38] = test system: Rhizoctonia solani; assay: Antifungal activity against Rhizoctonia solani at 500 ug/ml after 72 hrs by agar well diffusion method; conditions: read-out: DIZ
[39] = test system: Klebsiella pneumoniae; assay: Antibacterial activity against Klebsiella pneumoniae at 100 ug/ml after 24 hrs by agar well diffusion method; conditions: read-out: DIZ
[40] = test system: Aspergillus flavus; assay: Antifungal activity against Aspergillus flavus at 300 ug/ml after 72 hrs by agar well diffusion method; conditions: read-out: DIZ
[41] = test system: Escherichia coli; assay: Antibacterial activity against Escherichia coli ATCC 8739 at 500 ug/ml after 24 hrs by agar well diffusion method; conditions: ATCC 8739, 24 h, read-out: DIZ
[42] = test system: Rhizoctonia solani; assay: Antifungal activity against Rhizoctonia solani at 50 ug/ml after 72 hrs by agar well diffusion method; conditions: read-out: DIZ
[43] = test system: Bacillus subtilis; assay: Antibacterial activity against Bacillus subtilis after 24 hrs by agar well diffusion method
[44] = test system: Staphylococcus aureus; assay: Antibacterial activity against Staphylococcus aureus ATCC 6538 after 24 hrs by agar well diffusion method; conditions: ATCC 6538, 24 h
[45] = test system: Fusarium oxysporum; assay: Antifungal activity against Fusarium oxysporum at 300 ug/ml after 72 hrs by agar well diffusion method; conditions: read-out: DIZ
[46] = test system: Rhizoctonia solani; assay: Antifungal activity against Rhizoctonia solani at 200 ug/ml after 72 hrs by agar well diffusion method; conditions: read-out: DIZ
[47] = test system: Klebsiella pneumoniae; assay: Antibacterial activity against Klebsiella pneumoniae after 24 hrs by agar well diffusion method
[48] = test system: Aspergillus flavus; assay: Antifungal activity against Aspergillus flavus at 500 ug/ml after 72 hrs by agar well diffusion method; conditions: read-out: DIZ

CCn1cc(C=C2C(=O)OC(C)(C)OC2=O)c2ccccc21
zone of inhibition at 500 µg/mL [1]: 22 mm
zone of inhibition at 100 µg/mL [2]: 13 mm
zone of inhibition at 50 µg/mL [3]: 8 mm
zone of inhibition at 500 µg/mL [4]: 29 mm
zone of inhibition at 100 µg/mL [5]: 9 mm
zone of inhibition at 200 µg/mL [6]: 14 mm
zone of inhibition at 300 µg/mL [7]: 18 mm
zone of inhibition at 50 µg/mL [8]: 6 mm
zone of inhibition at 200 µg/mL [9]: 14 mm
zone of inhibition at 100 µg/mL [10]: 9 mm
MIC [11]: 15 µg/mL (≈ 50.1 µM)
MIC [12]: 35 µg/mL (≈ 117 µM)
zone of inhibition at 50 µg/mL [13]: 7 mm
zone of inhibition at 300 µg/mL [14]: 18 mm
zone of inhibition at 200 µg/mL [15]: 16 mm
zone of inhibition at 50 µg/mL [16]: 6 mm
zone of inhibition at 300 µg/mL [17]: 21 mm
zone of inhibition at 300 µg/mL [18]: 20 mm
zone of inhibition at 200 µg/mL [19]: 16 mm
zone of inhibition at 50 µg/mL [20]: 4 mm
MIC [21]: 35 µg/mL (≈ 117 µM)
zone of inhibition at 300 µg/mL [22]: 23 mm
zone of inhibition at 100 µg/mL [23]: 12 mm
zone of inhibition at 500 µg/mL [24]: 25 mm
zone of inhibition at 200 µg/mL [25]: 18 mm
zone of inhibition at 50 µg/mL [26]: 9 mm
zone of inhibition at 100 µg/mL [27]: 12 mm
zone of inhibition at 200 µg/mL [28]: 12 mm
zone of inhibition at 200 µg/mL [29]: 11 mm
zone of inhibition at 500 µg/mL [30]: 25 mm
zone of inhibition at 100 µg/mL [31]: 10 mm
zone of inhibition at 50 µg/mL [32]: 4 mm
zone of inhibition at 100 µg/mL [33]: 10 mm
MIC [34]: 40 µg/mL (≈ 134 µM)
zone of inhibition at 500 µg/mL [35]: 31 mm
MIC [36]: 40 µg/mL (≈ 134 µM)
zone of inhibition at 300 µg/mL [37]: 14 mm
zone of inhibition at 500 µg/mL [38]: 29 mm
zone of inhibition at 100 µg/mL [39]: 14 mm
zone of inhibition at 300 µg/mL [40]: 15 mm
zone of inhibition at 500 µg/mL [41]: 30 mm
zone of inhibition at 50 µg/mL [42]: 7 mm
MIC [43]: 30 µg/mL (≈ 100 µM)
MIC [44]: 25 µg/mL (≈ 83.5 µM)
zone of inhibition at 300 µg/mL [45]: 21 mm
zone of inhibition at 200 µg/mL [46]: 16 mm
MIC [47]: 15 µg/mL (≈ 50.1 µM)
zone of inhibition at 500 µg/mL [48]: 23 mm

Cn1cc(C=C2C(=O)OC(C)(C)OC2=O)c2ccccc21
zone of inhibition at 500 µg/mL [1]: 23 mm
zone of inhibition at 100 µg/mL [2]: 13 mm
zone of inhibition at 50 µg/mL [3]: 8 mm
zone of inhibition at 500 µg/mL [4]: 29 mm
zone of inhibition at 100 µg/mL [5]: 9 mm
zone of inhibition at 200 µg/mL [6]: 14 mm
zone of inhibition at 300 µg/mL [7]: 18 mm
zone of inhibition at 50 µg/mL [8]: 6 mm
zone of inhibition at 200 µg/mL [9]: 14 mm
zone of inhibition at 100 µg/mL [10]: 9 mm
MIC [11]: 15 µg/mL (≈ 52.6 µM)
MIC [12]: 35 µg/mL (≈ 123 µM)
zone of inhibition at 50 µg/mL [13]: 7 mm
zone of inhibition at 300 µg/mL [14]: 18 mm
zone of inhibition at 200 µg/mL [15]: 16 mm
zone of inhibition at 50 µg/mL [16]: 6 mm
zone of inhibition at 300 µg/mL [17]: 21 mm
zone of inhibition at 300 µg/mL [18]: 20 mm
zone of inhibition at 200 µg/mL [19]: 16 mm
zone of inhibition at 50 µg/mL [20]: 4 mm
MIC [21]: 35 µg/mL (≈ 123 µM)
zone of inhibition at 300 µg/mL [22]: 23 mm
zone of inhibition at 100 µg/mL [23]: 12 mm
zone of inhibition at 500 µg/mL [24]: 25 mm
zone of inhibition at 200 µg/mL [25]: 18 mm
zone of inhibition at 50 µg/mL [26]: 9 mm
zone of inhibition at 100 µg/mL [27]: 12 mm
zone of inhibition at 200 µg/mL [28]: 12 mm
zone of inhibition at 200 µg/mL [29]: 12 mm
zone of inhibition at 500 µg/mL [30]: 25 mm
zone of inhibition at 100 µg/mL [31]: 10 mm
zone of inhibition at 50 µg/mL [32]: 4 mm
zone of inhibition at 100 µg/mL [33]: 10 mm
MIC [34]: 40 µg/mL (≈ 140 µM)
zone of inhibition at 500 µg/mL [35]: 31 mm
MIC [36]: 40 µg/mL (≈ 140 µM)
zone of inhibition at 300 µg/mL [37]: 15 mm
zone of inhibition at 500 µg/mL [38]: 29 mm
zone of inhibition at 100 µg/mL [39]: 14 mm
zone of inhibition at 300 µg/mL [40]: 15 mm
zone of inhibition at 500 µg/mL [41]: 30 mm
zone of inhibition at 50 µg/mL [42]: 7 mm
MIC [43]: 30 µg/mL (≈ 105 µM)
MIC [44]: 25 µg/mL (≈ 87.6 µM)
zone of inhibition at 300 µg/mL [45]: 21 mm
zone of inhibition at 200 µg/mL [46]: 16 mm
MIC [47]: 15 µg/mL (≈ 52.6 µM)
zone of inhibition at 500 µg/mL [48]: 23 mm
